Consider 36 compounds from patent US7851474B2, “Dipiperazinyl ketones and related analogues” (Neurogen Corporation, priority 2005, dated 2010).

In one experiment the target is T1, chimeric human H3 receptor (Homo sapiens, UniProt Q9Y5N1, E19D).
T1 construct: made in house; host or cells: Sf9 insect cells (baculovirus infection); P2 membrane preparation
T1 sequence (Q9Y5N1 with tags, fused parts or gaps E19D): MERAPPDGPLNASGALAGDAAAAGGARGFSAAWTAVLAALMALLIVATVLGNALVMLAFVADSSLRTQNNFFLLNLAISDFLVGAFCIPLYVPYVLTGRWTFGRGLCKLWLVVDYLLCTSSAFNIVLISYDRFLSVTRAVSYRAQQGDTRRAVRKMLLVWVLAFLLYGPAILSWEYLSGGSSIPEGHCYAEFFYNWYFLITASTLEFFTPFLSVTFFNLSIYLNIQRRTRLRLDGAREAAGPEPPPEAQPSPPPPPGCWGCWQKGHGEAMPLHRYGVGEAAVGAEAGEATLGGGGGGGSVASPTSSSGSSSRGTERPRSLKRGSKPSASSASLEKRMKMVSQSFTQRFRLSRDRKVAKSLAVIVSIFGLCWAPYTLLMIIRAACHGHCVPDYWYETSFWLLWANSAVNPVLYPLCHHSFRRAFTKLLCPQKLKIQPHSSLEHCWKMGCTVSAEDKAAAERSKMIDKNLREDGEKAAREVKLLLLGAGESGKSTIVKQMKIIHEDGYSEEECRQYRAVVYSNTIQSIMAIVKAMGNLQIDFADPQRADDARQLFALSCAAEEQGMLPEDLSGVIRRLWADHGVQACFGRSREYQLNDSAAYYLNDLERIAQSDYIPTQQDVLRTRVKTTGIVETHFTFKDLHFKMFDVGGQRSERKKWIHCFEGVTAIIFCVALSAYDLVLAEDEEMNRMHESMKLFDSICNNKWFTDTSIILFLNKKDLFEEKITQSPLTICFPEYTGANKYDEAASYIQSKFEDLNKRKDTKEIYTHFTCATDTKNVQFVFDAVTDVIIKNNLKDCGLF
Put plainly: Chimeric human H3 receptor GTP binding assay (agonist-stimulated GTP-gamma35S binding, Example 7). Type of experiment: biochemical. To be noted: "*" in Ki of Table II; assay of Example 7; read-out: Ki. The method, boiled down: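 Sf9 membranes co-expressing the chimeric receptor and heterotrimeric G-protein subunits, 35 μg protein per tube, in pH 7.4 Tris buffer with 10 μM GDP. Test compounds at 10^−10 to 10^−6 M with 1 μM histamine, 60 min at room temperature. Filter-bound GTP-gamma^35S read by scintillation; IC50 from non-linear regression of dose-response curves.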
In general, Ki refers to a dissociation constant, usually derived from enzyme kinetics or from competition with a known ligand. `CCC(C)N1CCN(C(=O)CN2CCC(N3CCC(C)CC3)CC2)CC1` (stereo not drawn) [Compound 448, 1′-[2-(4-sec-butylpiperazin-1-yl)-2-oxoethyl]-4-methyl-1,4-bipiperidine]: the Ki is below 1000 nM.

On to `CC(C)N1CCN(C(=O)CN2CCN(c3ccc(C(F)(F)F)cn3)CC2C)CC1` (stereo not drawn) [Compound 445, 1-[2-(4-isopropylpiperazin-1-yl)-2-oxoethyl]-2-methyl-4-[5-(trifluoromethyl)pyridin-2-yl]piperazine], for which the inhibitory constant (Ki) was below 1000 nM.

Still in this experiment, the particulars now being: Table II "Ki", symbol "*": Ki in the assay of Example 7; read-out: Ki.
For the compound `O=C(CN1CCN(c2cnc(-c3ccc(Cl)cc3F)cn2)CC1)N1CCN(C2CCC2)CC1` [Compound 902, 2-(4-chloro-2-fluorophenyl)-5-{4-[2-(4-cyclobutylpiperazin-1-yl)-2-oxoethyl]piperazin-1-yl}pyrazine], the Ki was below 1000 nM.

`Cc1ccc(N2CCN(CC(=O)N3CCN(C4CCCC4)CC3)CC2)c(C)c1` [Compound 834, 1-cyclopentyl-4-{[4-(2,4-dimethylphenyl)piperazin-1-yl]acetyl}piperazine]: the Ki was below 1000 nM.

For `COc1ccc(Cl)cc1-c1cnc(N2CCN(CC(=O)N3CCN(C4CCC4)CC3)CC2)cn1` [Compound 911, 2-(5-chloro-2-methoxyphenyl)-5-{4-[2-(4-cyclobutylpiperazin-1-yl)-2-oxoethyl]piperazin-1-yl}pyrazine], the inhibitory constant (Ki) is below 1000 nM.

For the compound `O=C(CN1CCN(c2cccc(-c3ccc(F)cc3)c2)CC1)N1CCN(C2CCC2)CC1` [Compound 773, 1-cyclobutyl-4-{[4-(4′-fluorobiphenyl-3-yl)piperazin-1-yl]acetyl}piperazine], the inhibition constant Ki is below 1000 nM.

As for `CCC(C)N1CCN(C(=O)CN2CCN(c3ccc(Cl)c(C(F)(F)F)c3)CC2)CC1` (stereo not drawn) [Compound 855, 1-sec-butyl-4-({4-[4-chloro-3-(trifluoromethyl)phenyl]piperazin-1-yl}acetyl)piperazine], the Ki is below 1000 nM.

Consider `COc1ccc(N2CCN(CC(=O)N3CCN(C4CCCC4)CC3)CC2)cc1` [Compound 839, 1-cyclopentyl-4-{[4-(4-methoxyphenyl)piperazin-1-yl]acetyl}piperazine], for which the Ki is below 1000 nM.

Staying with this experiment, now noted: Table II, "*" in Ki; assay of Example 7; read-out: Ki.
As for `CS(=O)(=O)c1ccc(N2CCN(CC(=O)N3CCN(C4CCC4)CC3)CC2)cc1` [Compound 599, 1-cyclobutyl-4-({4-[4-(methylsulfonyl)phenyl]piperazin-1-yl}acetyl)piperazine], the Ki was below 1000 nM.

With `O=C(CN1CC=C(c2ccccc2)CC1)N1CCN(C2CCC2)CC1` [Compound 656, 1-cyclobutyl-4-[(4-phenyl-3,6-dihydropyridin-1(2H)-yl)acetyl]piperazine], the Ki was below 1000 nM.

As for `O=C(CN1CCN(c2cccc(Cl)c2Cl)CC1)N1CCN(C2CCC2)CC1` [Compound 666, 1-cyclobutyl-4-{[4-(2,3-dichlorophenyl)piperazin-1-yl]acetyl}piperazine], the Ki was below 1000 nM.

For the compound `Cc1cccc(N2CCN(CC(=O)N3CCN(C4CCC4)CC3)CC2)c1C` [Compound 672, 1-cyclobutyl-4-{[4-(2,3-dimethylphenyl)piperazin-1-yl]acetyl}piperazine], the Ki is below 1000 nM.

The same experiment, now with this note: Table II; assay of Example 7; "*" in Ki; read-out: Ki.
For the compound `O=C(CN1CCN(c2ccc(-c3ccc(OC(F)(F)F)cc3)nn2)CC1)N1CCN(C2CCC2)CC1` [Compound 1021, 3-{4-[2-(4-cyclobutylpiperazin-1-yl)-2-oxoethyl]piperazin-1-yl}-6-[4-(trifluoromethoxy)phenyl] pyridazine], the Ki is below 1000 nM.

As for `CCC(C)N1CCN(C(=O)CN2CCN(c3ccc(OC)cc3)C(C)C2)CC1` (stereo not drawn) [Compound 1113, 4-[2-(4-sec-butylpiperazin-1-yl)-2-oxoethyl]-1-(4-methoxyphenyl)-2-methylpiperazine], the Ki was below 1000 nM.

`COCCN(C(=O)c1cccc(N2CCN(CC(=O)N3CCN(C4CCC4)CC3)CC2)c1)C(C)C` [Compound 1070, 3-{4-[2-(4-cyclobutylpiperazin-1-yl)-2-oxoethyl]piperazin-1-yl}-N-isopropyl-N-(2-methoxyethyl)benzamide]: the Ki was below 1000 nM.

With `O=C(CN1CCN(c2ccc(-c3ccc(F)c(Cl)c3)nn2)CC1)N1CCN(C2CCC2)CC1` [Compound 987, 3-(3-chloro-4-fluorophenyl)-6-{4-[2-(4-cyclobutylpiperazin-1-yl)-2-oxoethyl]piperazin-1-yl}pyridazine], the Ki is below 1000 nM.

Take `Cc1cccc(C)c1-c1cnc(N2CCN(CC(=O)N3CCN(C4CCC4)CC3)CC2)cn1` [Compound 972, 2-{4-[2-(4-cyclobutylpiperazin-1-yl)-2-oxoethyl]piperazin-1-yl}-5-(2,6-dimethylphenyl)pyrazine]: the inhibition constant (Ki) was below 1000 nM.

For the compound `Cc1cc(C)c(-c2ccc(N3CCN(CC(=O)N4CCN(C5CCC5)CC4)CC3)nn2)c(C)c1` [Compound 1061, 3-{4-[2-(4-cyclobutylpiperazin-1-yl)-2-oxoethyl]piperazin-1-yl}-6-mesitylpyridazine], the Ki was below 1000 nM.

Still in this experiment, the particulars now being: assay of Example 7; "*" in Ki of Table II; read-out: Ki.
Regarding `C=CCNC(=O)c1cccc(N2CCN(CC(=O)N3CCN(C4CCC4)CC3)CC2)c1` [Compound 1260, N-allyl-3-{4-[2-(4-cyclobutylpiperazin-1-yl)-2-oxoethyl]piperazin-1-yl}benzamide], the inhibition constant Ki was below 1000 nM.

In the case of `CCCCNC(=O)c1cccc(N2CCN(CC(=O)N3CCN(C4CCC4)CC3)CC2)c1` [Compound 1263, N-butyl-3-{4-[2-(4-cyclobutylpiperazin-1-yl)-2-oxoethyl]piperazin-1-yl}benzamide], the Ki was below 1000 nM.

As to `O=C(NC1CCN(CC(=O)N2CCN(C3CCC3)CC2)C1)C1CC2CCC1C2` (stereo not drawn) [Compound 1255, N-{1-[2-(4-cyclobutylpiperazin-1-yl)-2-oxoethyl]pyrrolidin-3-yl}bicyclo[2.2.1]heptane-2-carboxamide], the Ki was below 1000 nM.

`C=CCNC(=O)c1ccc(N2CCN(CC(=O)N3CCN(C4CCC4)CC3)CC2)nc1` [Compound 1262, N-allyl-6-{4-[2-(4-cyclobutylpiperazin-1-yl)-2-oxoethyl]piperazin-1-yl}nicotinamide]: the inhibition constant Ki is below 1000 nM.

On to `O=C(NC1CCN(CC(=O)N2CCN(C3CCC3)CC2)C1)c1ccc(-c2ccccc2)cc1` (stereo not drawn) [Compound 1254, N-{1-[2-(4-cyclobutylpiperazin-1-yl)-2-oxoethyl]pyrrolidin-3-yl}biphenyl-4-carboxamide], for which the inhibition constant (Ki) was below 1000 nM.

`CC(C)OC1=NCN(c2ccccc2)C12CCN(CC(=O)N1CCN(C3CCC3)CC1)CC2` [Compound 1192, 8-[2-(4-cyclobutylpiperazin-1-yl)-2-oxoethyl]-4-isopropoxy-1-phenyl-1,3,8-triazaspiro[4.5]dec-3-ene]: the inhibitory constant (Ki) was below 1000 nM.

As for `CC(C)N1CCN(C(=O)CN2CCN(c3ccc(C#N)cc3)CC2)CC1` [Compound 1149, 4-{4-[2-(4-isopropylpiperazin-1-yl)-2-oxoethyl]piperazin-1-yl}benzonitrile], the Ki is below 1000 nM.

As to `CCOc1cccc(C(=O)NC2CCN(CC(=O)N3CCN(C4CCC4)CC3)C2)c1` (stereo not drawn) [Compound 1239, N-{1-[2-(4-cyclobutylpiperazin-1-yl)-2-oxoethyl]pyrrolidin-3-yl}-3-ethoxybenzamide], the Ki was below 1000 nM.

The experiment is the same for the next values; noted with them: assay of Example 7; symbol * in column headed Ki of Table II; read-out: Ki.
Take `O=C(CN1CCN(c2ccc(Cl)cc2)CC1)N1CCN(C2CCCCC2)CC1` [Compound 357, 1-(4-chlorophenyl)-4-[2-(4-cyclohexylpiperazin-1-yl)-2-oxoethyl]piperazine]: the Ki was below 1000 nM.

Consider `O=C(CN1CCN(c2ccc(C(=O)N3CCCCCC3)cc2)CC1)N1CCN(C2CCC2)CC1` [Compound 317, 1-(4-{4-[2-(4-cyclobutylpiperazin-1-yl)-2-oxoethyl]piperazin-1-yl}benzoyl)azepane], for which the inhibitory constant (Ki) is below 1000 nM.

Take `CC(=O)c1ccc(N2CCN(CC(=O)N3CCN(C4CCC4)CC3)CC2)nn1` [Compound 372, 1-(6-{4-[2-(4-cyclobutylpiperazin-1-yl)-2-oxoethyl]piperazin-1-yl}pyridazin-3-yl)ethanone]: the Ki was below 1000 nM.

Regarding `O=C1NC2(CCN(CC(=O)N3CCN(C4CCC4)CC3)CC2)c2ncccc21` [Compound 436, 1-[2-(4-cyclobutylpiperazin-1-yl)-2-oxoethyl]spiro[piperidine-4,7′-pyrrolo[3,4-b]pyridin]-5′(6′H)-one], the Ki was below 1000 nM.

For `CN1C(=O)C2(CCN(CC(=O)N3CCN(C4CCC4)CC3)CC2)c2ccccc21` [Compound 423], the inhibition constant Ki was below 1000 nM.

As for `COc1cc(N2CCN(CC(=O)N3CCN(C4CCC4)CC3)CC2)ccc1C(C)=O` [Compound 318, 1-(4-{4-[2-(4-cyclobutylpiperazin-1-yl)-2-oxoethyl]piperazin-1-yl}-2-methoxyphenyl)ethanone], the Ki was below 1000 nM.

Turning to `CCCN(CCC)C1CCN(CC(=O)N2CCN(C3CCCCC3)CC2)CC1` [Compound 441, 1-[2-(4-cyclohexylpiperazin-1-yl)-2-oxoethyl]-N,N-dipropylpiperidin-4-amine], the Ki was below 1000 nM.

As to `Cc1cc(N2CCN(CC(=O)N3CCN(C(C)C)CC3)CC2)ccc1Cl` [Compound 353, 1-(4-chloro-3-methylphenyl)-4-[2-(4-isopropylpiperazin-1-yl)-2-oxoethyl]piperazine], the inhibition constant (Ki) is below 1000 nM.

For the compound `CC(=O)c1cnc(N2CCN(CC(=O)N3CCN(C4CCC4)CC3)CC2)nc1` [Compound 269, 1-(2-{4-[2-(4-cyclobutylpiperazin-1-yl)-2-oxoethyl]piperazin-1-yl}pyrimidin-5-yl)ethanone], the Ki was below 1000 nM.

Consider `CN(C)C1CCN(CC(=O)N2CCN(C3CCCC3)CC2)C1` (stereo not drawn) [Compound 444, 1-[2-(4-cyclopentylpiperazin-1-yl)-2-oxoethyl]-N,N-dimethylpyrrolidin-3-amine], for which the Ki was below 1000 nM.
